From patent US11365203B2, “Fluorescent dye and preparation method and use thereof” (Fluorescence Diagnosis (shanghai) Biotech Company Ltd., priority 2016, dated 2022)

Test: Fluorescence emission spectra of molecular rotors in glycerin and methanol
Format: physicochemical
Conditions: for Maximum Emission Wavelength: 1×10^−5 M in glycerin and methanol, excited at maximum excitation wavelength of each dye; for Fluorescence Intensity Ratios in Glycerol/Methanol: 1×10^−5 M, glycerol vs methanol solution
Description: The fluorescent dyes (molecular rotors) prepared in Examples 1-68 were separately dissolved in dimethyl sulfoxide to prepare respectively a mother liquor having a concentration of 1×10^−2 M, and each of the mother liquors was added individually to glycerin and methanol, and mixed uniformly, thereby solutions of a final concentration of 1×10^−5 M were prepared individually. According to the different fluorescent dyes, the fluorescence emission spectra of the fluorescent dyes were detected with the maximum excitation wavelengths of respective fluorescent dyes successively under the same conditions.

Maximum Emission Wavelength | Fluorescence Intensity Ratios in Glycerol/Methanol | Compound
655 nm | 655 | 6-[2-cyano-2-(2-phenylpropionazole)-vinyl]-2-dimethylamino-thieno[3,2-B:2′,3′-D]thiophene [Molecular Rotor 12]
557 nm | 892 | CN(CCOCCCS(=O)(=O)O)c1cc2sc(C=C(C#N)C#N)cc2s1 [Molecular Rotor 4, 6-(2,2-dicyano-vinyl)-2-[N-methyl-N-(3-sulfonic acid propyloxyethyl)]-thieno[3,2,b]thiophene]
555 nm | 1980 | CNc1cc2sc(/C=C(\C#N)C(=O)O)cc2s1 [Molecular Rotor 5, 6-(2-cyano-2-formic acid)-2-methylamino-thieno[3,2,b]thiophene]
585 nm | 1453 | COCCOCCOCCOCCOCCN(C)c1cc2sc(/C=C3\N=C(C)N(C)C3=O)cc2s1 [Molecular Rotor 6]
555 nm | 1877 | COCCNC(=O)/C(C#N)=C/c1cc2sc(N(C)CCC#N)cc2s1 [Molecular Rotor 7]
520 nm | 851 | CC1(C)OC(=O)C(C#N)=C1c1cc2sc(O)cc2s1 [Molecular Rotor 10]
620 nm | 568 | CN(C)c1cc2sc3cc(/C=C(\C#N)C(=O)OC(C)(C)C)sc3c2s1 [Molecular Rotor 11, 6-(2-cyano-2-tert-butyl formatevinyl)-2-dimethylamino-thieno[3,2-B:2′,3′-D]thiophene]
690 nm | 352 | CN(CC(=O)O)c1cc2sc3cc(/C=C(\C#N)c4nc5ccccc5s4)sc3c2s1 [Molecular Rotor 13, 6-[2-cyano-2-(1,3-benzothiazol-2-yl)-vinyl]-2-N-m ethylamino-N-acetic acid-dithiophene[3,2-B:2′3′-D]thiophene]
620 nm | 681 | CN(C)c1cc2sc3cc(C=C(C#N)C#N)sc3c2s1 [Molecular Rotor 14]
620 nm | 799 | COCCNC(=O)/C(C#N)=C/c1cc2sc3cc(N4CCCC4)sc3c2s1 [Molecular Rotor 15]
620 nm | 951 | CN(CC(O)C(O)C(O)C(O)CO)c1cc2sc3cc(/C=C(\C#N)C(=O)O)sc3c2s1 (stereo not drawn) [Molecular Rotor 16]
618 nm | 888 | COC(=O)/C(C#N)=C/c1cc2sc3cc(N(CC(=O)O)CC(=O)O)sc3c2s1 [Molecular Rotor 17]
630 nm | 678 | COCCOCCOCCOCCOCCOCCOCCOCCOCCOCCOCCOCCOCCOCCOCCNc1cc2sc3cc(/C=C4\N=C(C)N(C)C4=O)sc3c2s1 [Molecular Rotor 18]
650 nm | 791 | CN1C(=O)/C(=C/c2cc3sc4cc(N(CCO)CCO)sc4c3s2)N=C1c1ccccc1 [Molecular Rotor 19]
620 nm | 544 | CCOC(=O)/C(C#N)=C/c1cc2sc3cc(N4CCOCC4)sc3c2s1 [Molecular Rotor 21]
608 nm | 568 | CN(CCO)c1ccc2cc(/C=C(\C#N)c3nc4ccccc4o3)sc2c1 [Molecular Rotor 23]
608 nm | 912 | N#C/C(=C\c1cc2ccc(N(CCO)CCO)cc2s1)c1nc2ccccc2s1 [Molecular Rotor 24]
570 nm | 615 | CCCCCCCCCCN(CCCCCCCCCC)c1ccc2cc(C=C(C#N)C#N)sc2c1 [Molecular Rotor 25]
610 nm | 712 | CN1C(=O)/C(=C\c2cc3ccc(N(C)CCOCCC(=O)O)cc3s2)N=C1c1ccccc1 [Molecular Rotor 26]
600 nm | 601 | CCCCN(CC(O)CO)c1ccc2cc(/C=C3/N=C(C)N(C)C3=O)sc2c1 (stereo not drawn) [Molecular Rotor 27]
650 nm | 569 | CCCCN(CCO)c1ccc2cc(/C=C3N=C(/C=C/c4ccccc4)N(C)C/3=O)sc2c1 [Molecular Rotor 28]
570 nm | 515 | COCCOCCOCCOCCOCCN(C)c1ccc2cc(/C=C(\C#N)C(=O)O)sc2c1 [Molecular Rotor 29]
520 nm | 513 | COCCNC(=O)/C(C#N)=C/c1cc2ccc(OC)cc2s1 [Molecular Rotor 30]
535 nm | 572 | COC(=O)/C(C#N)=C/c1cc2ccc(O)cc2s1 [Molecular Rotor 31]

Maximum Emission Wavelength | Fluorescence Intensity Ratios in Glycerol/Methanol | Compound
570 nm | 612 | COc1c(/C=C(\C#N)C(=O)OC(C)(C)C)sc2c(OC)c(N(C)C)sc12 [Molecular Rotor 32]
565 nm | 531 | COc1c(/C=C(\C#N)C(=O)O)sc2c(OC)c(N(C)C)sc12 [Molecular Rotor 33]
626 nm | 1012 | CN(C)c1ccc2c(c1)sc1cc(C=C(C#N)C#N)sc12 [Molecular Rotor 34]
626 nm | 476 | CN(CCO)c1ccc2c(c1)sc1cc(/C=C(\C#N)C(=O)OC(C)(C)C)sc12 [Molecular Rotor 35]
628 nm | 901 | COCCNC(=O)/C(C#N)=C/c1cc2sc3cc(N(CCO)CCO)ccc3c2s1 [Molecular Rotor 36]
627 nm | 879 | CNc1ccc2c(c1)sc1cc(/C=C(\C#N)C(=O)O)sc12 [Molecular Rotor 37]
650 nm | 623 | COCCOCCOCCOCCOCCN(C)c1ccc2c(c1)sc1cc(/C=C(\C#N)c3nc4ccccc4o3)sc12 [Molecular Rotor 38]
667 nm | 541 | CN(CCC#N)c1ccc2c(c1)sc1cc(/C=C(\C#N)c3nc4ccccc4s3)sc12 [Molecular Rotor 39]
659 nm | 652 | CCCCN(CCO)c1ccc2c(c1)sc1cc(/C=C3/N=C(c4ccccc4)N(C)C3=O)sc12 [Molecular Rotor 40]
558 nm | 875 | CN(C)c1cc2cc3sc(C=C(C#N)C#N)cc3cc2s1 [Molecular Rotor 41]
558 nm | 924 | CCCCCCCCCCN(CCCCCCCCCC)c1cc2cc3sc(/C=C(\C#N)C(=O)OC(C)(C)C)cc3cc2s1 [Molecular Rotor 42]
582 nm | 816 | CN(CCO)c1cc2cc3sc(/C=C(\C#N)c4nc5ccccc5o4)cc3cc2s1 [Molecular Rotor 43]
603 nm | 631 | CNc1cc2cc3sc(/C=C(\C#N)c4nc5ccccc5s4)cc3cc2s1 [Molecular Rotor 44]
585 nm | 812 | COCCOCCOCCOCCOCCN(C)c1cc2cc3sc(/C=C4/N=C(C)N(C)C4=O)cc3cc2s1 [Molecular Rotor 45]
563 nm | 712 | COCCNC(=O)/C(C#N)=C/c1cc2cc3sc(N4CCCC4)cc3cc2s1 [Molecular Rotor 46]
561 nm | 912 | CN(CCC#N)c1cc2cc3sc(/C=C(\C#N)C(=O)O)cc3cc2s1 [Molecular Rotor 47]
562 nm | 608 | CN(CCO)c1cc2cc3cc(C=C(C#N)C#N)sc3cc2s1 [Molecular Rotor 48]
559 nm | 612 | CN(CCOCCCS(=O)(=O)O)c1cc2cc3cc(/C=C(\C#N)C(=O)OC(C)(C)C)sc3cc2s1 [Molecular Rotor 49]
587 nm | 777 | CC1=N/C(=C/c2cc3cc4cc(N(CCO)CCO)sc4cc3s2)C(=O)N1C [Molecular Rotor 50]
599 nm | 535 | CNc1cc2cc3cc(/C=C4/N=C(c5ccccc5)N(C)C4=O)sc3cc2s1 [Molecular Rotor 51]
578 nm | 680 | COCCOCCOCCOCCOCCN(C)c1cc2cc3cc(/C=C(\C#N)c4nc5ccccc5o4)sc3cc2s1 [Molecular Rotor 52]
599 nm | 915 | CN(CCC#N)c1cc2cc3cc(/C=C(\C#N)c4nc5ccccc5s4)sc3cc2s1 [Molecular Rotor 53]
563 nm | 722 | COCCNC(=O)/C(C#N)=C/c1cc2cc3cc(N4CCOCC4)sc3cc2s1 [Molecular Rotor 54]

Compound | Maximum Emission Wavelength | Fluorescence Intensity Ratios in Glycerol/Methanol
CN1C(=O)/C(=C/c2cc3sc4cc(N(CCCl)CCCl)sc4c3s2)N=C1/C=C/c1ccccc1 [Molecular Rotor 20] | 690 nm | 536
